Data reported in the NIST ThermoML archive (doi:10.1016/j.jct.2015.07.034).
± gives the expanded uncertainty stated by the source.

Conditions: for Normal melting temperature: DTA

CC[n+]1ccccc1.O=S(=O)([N-]S(=O)(=O)C(F)(F)F)C(F)(F)F [1-ethylpyridinium bis[(trifluoromethyl)sulfonyl]imide]
Normal melting temperature (Crystal 1): 32.00 ± 2 °C | Triple point temperature (Crystal 2, DSC): 294.15 ± 2 K

CC[n+]1ccccc1.O=S(=O)([O-])C(F)(F)F [1-ethylpyridinium triflate]
Normal melting temperature (Crystal 1): 32.00 ± 2 °C | Triple point temperature (Crystal 2, DSC): 266.15 ± 2 K

CCn1cc[n+](C)c1.O=S(=O)([O-])C(F)(F)F [1-ethyl-3-methylimidazolium trifluoromethanesulfonate]
Normal melting temperature (Crystal): -14.00 ± 2 °C

CC[n+]1ccccc1.CS(=O)(=O)[O-] [1-ethylpyridinium methanesulfonate]
Normal melting temperature (Crystal): 62.00 ± 2 °C

C[N+](C)(C)CCO.O=S(=O)([N-]S(=O)(=O)C(F)(F)F)C(F)(F)F [choline bis(trifluoromethylsulfonyl)imide]
Normal melting temperature (Crystal 1): 33.00 ± 2 °C | Triple point temperature (Crystal 2, DSC): 275.15 ± 2 K | Triple point temperature (Metastable crystal, DSC): 300.15 ± 2 K

CCn1cc[n+](C)c1.O=S(=O)([N-]S(=O)(=O)C(F)(F)C(F)(F)F)C(F)(F)C(F)(F)F
Normal melting temperature (Crystal): 16.00 ± 2 °C | Glass transition temperature (Glass, DSC): -52.00 ± 2 °C
